For this assay, the system named is XBP1s-luc 293 LUC. The assay can be described thus: cellular PD assay, XBP1s-LUC reporter (Example 903). It counts as cell-based. The following applies: read-out: XBP1s-luc 293 LUC (IC50). An outline of the steps:
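A luciferase fusion, in frame and expressed only when the XBP1 transcript is spliced, served as the readout of cellular IRE1α activity in an XBP1-Luc reporter line.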

pIC50: −log10 of the molar value. Where a name gives a salt, the structure may show the parent alone. Read-outs that look alike come from different tables or passages of the source.

The pIC50 is the negative decadic logarithm of the IC50, by convention in mol/L. For `Cc1ccc2c(NS(=O)(=O)N(C)C)c(F)ccc2c1Oc1ncccc1-c1ccnc(N[C@@H]2CNC[C@H](C)C2)n1` [Example 325, 4-[2-[[5-(Dimethylsulfamoylamino)-6-fluoro-2-methyl-1-naphthyl]oxy]-3-pyridyl]-2-[[(3S,5R)-5-methyl-3-piperidyl]amino]pyrimidine], the pIC50 (Table 1) was 7.46. Take `Cc1ccc2c(NS(=O)(=O)Cc3ccccc3C#N)cccc2c1Oc1ncccc1-c1ccnc(N[C@H]2CCCNC2)n1` [Example 146, (S)-1-(2-Cyanophenyl)-N-(6-methyl-5-((3-(2-(piperidin-3-ylamino)pyrimidin-4-yl)pyridin-2-yl)oxy)naphthalen-1-yl)methanesulfonamide]: under “Table 1”, the pIC50 is 7.74. On to `Cc1ccc2c(NS(=O)(=O)N(C)CC(F)(F)F)c(F)ccc2c1Oc1ncccc1-c1ccnc(N[C@@H]2CNC[C@@H](F)C2)n1` (single isomer, unassigned) [Example 500, hydrochloride], for which, under “Table 2”, the pIC50 is 8.06.

`Cc1cccc(S(=O)(=O)Nc2cccc3c(Oc4ncccc4-c4ccnc(N[C@H]5CCCNC5)n4)c(C)ccc23)n1` [Example 171, (S)-6-Methyl-N-(6-methyl-5-((3-(2-(piperidin-3-ylamino)pyrimidin-4-yl)pyridin-2-yl)oxy)naphthalen-1-yl)pyridine-2-sulfonamide]: under “Table 1”, the pIC50 was 6.51. Same read-out and setting: as for `Cc1ccc2c(NC[C@H](O)CF)cccc2c1Oc1ncccc1-c1ccnc(N[C@H]2CCCNC2)n1` (single isomer, unassigned) [Example 333], the figure is 7.35. As to `Cc1ccc2c(NS(=O)(=O)N(C)CC(F)(F)F)c(F)ccc2c1Oc1ncccc1-c1ccnc(N[C@H]2CCCNC2)n1` [Example 427, 4-[2-[[6-Fluoro-2-methyl-5-[[methyl(2,2,2-trifluoroethyl)sulfamoyl]amino]-1-naphthyl]oxy]-3-pyridyl]-2-[[(3S)-3-piperidyl]amino]pyrimidine hydrochloride], the pIC50 (Table 2) is 8.22.

As for `Cc1ccc2c(NS(=O)(=O)C3CC3)cccc2c1Oc1ncccc1-c1ccnc(N[C@H]2CCCNC2)n1` [Example 105, (S)—N-(6-Methyl-5-((3-(2-(piperidin-3-ylamino)pyrimidin-4-yl)pyridin-2-yl)oxy)naphthalen-1-yl)cyclopropanesulfonamide hydrochloride], the pIC50 (Table 1) is 6.31. Same read-out and setting: as for `Cc1nc(Nc2cccc3c(Oc4ncccc4-c4ccnc(N[C@H]5CCCNC5)n4)c(C)ccc23)cs1` [Example 192, (S)-2-Methyl-N-(6-methyl-5-((3-(2-(piperidin-3-ylamino)pyrimidin-4-yl)pyridin-2-yl)oxy)naphthalen-1-yl)thiazol-4-amine], the figure is 6.35; as for `Cc1ccc2c(NS(=O)(=O)CCl)cccc2c1Oc1ncccc1-c1ccnc(N[C@H]2CCCNC2)n1` [Example 151, (S)-1-Chloro-N-(6-methyl-5-((3-(2-(piperidin-3-ylamino)pyrimidin-4-yl)pyridin-2-yl)oxy)naphthalen-1-yl)methanesulfonamide], 6.85.

`Cc1ccc2c(NC(=O)[C@H]3CCCC3C)cccc2c1Oc1ncccc1-c1ccnc(N[C@H]2CCCNC2)n1` (single isomer, unassigned) [Example 372]: the pIC50 (Table 1) is 6.33.

For `CC[C@@H](O)CNc1cccc2c(Oc3ncccc3-c3ccnc(N[C@H]4CCCNC4)n3)c(C)ccc12` [Example 312, (R)-1-((6-Methyl-5-((3-(2-((S)-piperidin-3-ylamino)pyrimidin-4-yl)pyridin-2-yl)oxy)naphthalen-1-yl)amino)butan-2-ol], the pIC50 (Table 1) is 7.56. With `Cc1ccc2c(N3CCCC3=O)c(F)ccc2c1Oc1ncccc1-c1ccnc(N[C@H]2CCCNC2)n1` [Example 335, (S)-1-(2-Fluoro-6-methyl-5-((3-(2-(piperidin-3-ylamino)pyrimidin-4-yl)pyridin-2-yl)oxy)naphthalen-1-yl)pyrrolidin-2-one], under “Table 1”, the pIC50 was 6.42. Consider `Cc1ccc2c(NC[C@H]3CC3(F)F)cccc2c1Oc1ncccc1-c1ccnc(N[C@H]2CCCNC2)n1` (single isomer, unassigned) [Example 342], for which, where the note is “Table 1”, the pIC50 was 6.92. Still for that read-out and setting: as for `CCCS(=O)(=O)Nc1cc(C)c(Oc2ncccc2-c2ccnc(N[C@H]3CCCNC3)n2)c2ccccc12` [Example 164, (S)—N-(3-Methyl-4-((3-(2-(piperidin-3-ylamino)pyrimidin-4-yl)pyridin-2-yl)oxy)naphthalen-1-yl)propane-1-sulfonamide], the figure is 6.83. On to `Cc1ccc2c(NS(=O)(=O)Cc3ccccc3)c(F)ccc2c1Oc1ncccc1-c1ccnc(N[C@@H]2CNC[C@@H](F)C2)n1` (single isomer, unassigned) [Example 418, hydrochloride], for which the pIC50 (Table 2) was 8.70. For the compound `CCC(F)(F)CS(=O)(=O)Nc1c(F)ccc2c(Oc3ncccc3-c3ccnc(N[C@H]4CNC[C@H](F)C4)n3)c(C)ccc12` (single isomer, unassigned) [Example 495, hydrochloride], the pIC50 (Table 2) was 6.33. The same measure, in the same setting: as for `Cc1ccc2c(NC[C@@H](O)C(F)F)cccc2c1Oc1ncccc1-c1ccnc(N[C@H]2CCCNC2)n1` (single isomer, unassigned) [Example 476, hydrochloride], the figure is 6.89. As to `CCN(C)S(=O)(=O)Nc1cccc2c(Oc3ncccc3-c3ccnc(N[C@H]4CCCNC4)n3)c(C)ccc12` [Example 113, 4-[2-[[5-[[Ethyl(methyl)sulfamoyl]amino]-2-methyl-1-naphthyl]oxy]-3-pyridyl]-2-[[(3S)-3-piperidyl]amino]pyrimidine hydrochloride], the pIC50 (Table 1) is 6.46. As for `Cc1ccc2c(NS(=O)(=O)CC(F)(F)C(F)(F)F)c(F)ccc2c1Oc1ncccc1-c1ccnc(N[C@H]2CCCNC2)n1` [Example 439, (S)-2,2,3,3,3-Pentafluoro-N-(2-fluoro-6-methyl-5-((3-(2-(piperidin-3-ylamino)pyrimidin-4-yl)pyridin-2-yl)oxy)naphthalen-1-yl)propane-1-sulfonamide hydrochloride], the pIC50 (Table 2) is 6.81. In the case of `Cc1ccc2c(NS(=O)(=O)Cc3ccccc3CF)cccc2c1Oc1ncccc1-c1ccnc(N[C@H]2CCCNC2)n1` [Example 170, (S)-1-(2-(Fluoromethyl)phenyl)-N-(6-methyl-5-((3-(2-(piperidin-3-ylamino)pyrimidin-4-yl)pyridin-2-yl)oxy)naphthalen-1-yl)methanesulfonamide], the pIC50 (Table 1) is 7.82. The same measure, in the same setting: the result for `CC[C@@H](C)C(=O)Nc1cccc2c(Oc3ncccc3-c3ccnc(N[C@H]4CCCNC4)n3)c(C)ccc12` [Example 204, (R)-2-methyl-N-(6-methyl-5-((3-(2-(((S)-piperidin-3-yl)amino)pyrimidin-4-yl)pyridin-2-yl)oxy)naphthalen-1-yl)butanamide] reads 6.35. With `Cc1nc(CNc2cccc3c(Oc4ncccc4-c4ccnc(N[C@H]5CCCNC5)n4)c(C)ccc23)no1` [Example 320, 4-[2-[[2-Methyl-5-[(5-methyl-1,2,4-oxadiazol-3-yl)methylamino]-1-naphthyl]oxy]-3-pyridyl]-N-[(3S)-3-piperidyl]pyrimidin-2-amine], the pIC50 (Table 1) is 6.13. Same read-out and setting: as for `COCCS(=O)(=O)Nc1c(F)ccc2c(Oc3ncccc3-c3ccnc(N[C@H]4CCCNC4)n3)c(C)ccc12` [Example 185, (S)—N-(2-Fluoro-6-methyl-5-((3-(2-(piperidin-3-ylamino)pyrimidin-4-yl)pyridin-2-yl)oxy)naphthalen-1-yl)-2-methoxyethanesulfonamide], the figure is 7.13. On to `Cc1nc(CS(=O)(=O)Nc2c(F)ccc3c(Oc4ncccc4-c4ccnc(N[C@H]5CNC[C@H](F)C5)n4)c(C)ccc23)cs1` (single isomer, unassigned) [Example 491, hydrochloride], for which the pIC50 (Table 2) is 6.93. On to `Cc1ccc2c(NS(=O)(=O)CCC(C)(F)F)c(F)ccc2c1Oc1ncccc1-c1ccnc(N[C@H]2CNC[C@H](F)C2)n1` (single isomer, unassigned) [Example 497, hydrochloride], for which the pIC50 (Table 2) is 5.29.

As for `Cc1ccc2c(N3CCCS3(=O)=O)cccc2c1Oc1ncccc1-c1ccnc(N[C@H]2CCCNC2)n1` [Example 194, (S)-2-(6-Methyl-5-((3-(2-(piperidin-3-ylamino)pyrimidin-4-yl)pyridin-2-yl)oxy)naphthalen-1-yl)isothiazolidine 1,1-dioxide], for the setting “Table 1”, the pIC50 is 6.50.

Take `O=S(=O)(CCC(F)(F)F)Nc1cccc2c(Oc3ncccc3-c3ccnc(N[C@H]4CCCNC4)n3)cccc12` [Example 451]: the pIC50 (Table 2) was 6.46.

Turning to `Cc1ccc2c(NC(=O)CC(C)(C)C)c(F)ccc2c1Oc1ncccc1-c1ccnc(N[C@H]2CCCNC2)n1` [Example 275, (S)—N-(2-Fluoro-6-methyl-5-((3-(2-(piperidin-3-ylamino)pyrimidin-4-yl)pyridin-2-yl)oxy)naphthalen-1-yl)-3,3-dimethylbutanamide], the pIC50 (Table 1) was 7.12. The same measure, in the same setting: the result for `Cc1ccc2c(NC(=O)Cc3ccc(F)cc3)cccc2c1Oc1ncccc1-c1ccnc(N[C@H]2CCCNC2)n1` [Example 199, (S)-2-(4-Fluorophenyl)-N-(6-methyl-5-((3-(2-(piperidin-3-ylamino)pyrimidin-4-yl)pyridin-2-yl)oxy)naphthalen-1-yl)acetamide] reads 6.81. As to `CCC(F)(F)CS(=O)(=O)Nc1c(F)ccc2c(Oc3ncccc3-c3ccnc(N[C@H]4CCCNC4)n3)c(C)ccc12` [Example 456, (S)-2,2-Difluoro-N-(2-fluoro-6-methyl-5-((3-(2-(piperidin-3-ylamino)pyrimidin-4-yl)pyridin-2-yl)oxy)naphthalen-1-yl)butane-1-sulfonamide hydrochloride], for the setting “Table 2”, the pIC50 is 7.96. With `Cc1ccc2c(NS(=O)(=O)CBr)cccc2c1Oc1ncccc1-c1ccnc(N[C@H]2CCCNC2)n1` [Example 172, (S)-1-Bromo-N-(6-methyl-5-(3-(2-(piperidin-3-ylamino)pyrimidin-4-yl)pyridin-2-yloxy)naphthalen-1-yl)methanesulfonamide], the pIC50 (Table 1) was 6.41. On to `Cc1ccc2c(N[C@H](C)[C@@H](C)O)cccc2c1Oc1ncccc1-c1ccnc(N[C@H]2CCCNC2)n1` [Example 381, anti-3-((6-Methyl-5-((3-(2-(((S)-piperidin-3-yl)amino)pyrimidin-4-yl)pyridin-2-yl)oxy)naphthalen-1-yl)amino)butan-2-ol], for which the pIC50 (Table 1) is 6.39.
